Drawing on ChEMBL document CHEMBL5143650, “Synthesis and biological evaluation of new series of quinazoline derivatives as EGFR/HER2 dual-target inhibitors” (Bioorg Med Chem Lett, 2022), this text covers inhibition, IC50 and GI50 for 21 molecules.

Structures are written as SMILES.

A short description of test [1]: Inhibition of recombinant human N-terminal His-tagged EGFR (676 to 1255 residues) expressed in Sf21 insect cells at 200 uM using kinase substrate 22 incubated for 30 mins in presence of ATP relative to control.
The nature of test [2]: Inhibition of recombinant human N-terminal His-tagged EGFR (676 to 1255 residues) expressed in Sf21 insect cells using kinase substrate 22 incubated for 30 mins in presence of ATP.
The subject of another test is NCI-H358. The experiment in a line: Antiproliferative activity against human NCI-H358 cells assessed as reduction in cell viability after 72 hrs by CCK-8 assay. It is filed as functional. In general terms: Tetrazolium assays rely on reduction of a dye to a coloured formazan, in cell work by metabolically active cells.
The test system of the next test is PC-9. The experiment in a line: Antiproliferative activity against human PC-9 cells expressing EGFR E746/A750 deletion mutant assessed as reduction in cell viability after 72 hrs by CCK-8 assay. Format: functional.
The next test concerns Calu-3. The test can be described thus: Antiproliferative activity against human Calu-3 cells assessed as reduction in cell viability after 72 hrs by CCK-8 assay. Format: functional.
Test [3] can be described thus: Antiproliferative activity against human NCI-H1781 cells expressing HER G776V mutant assessed as reduction in cell viability after 72 hrs by CCK-8 assay. It is filed as functional.
Test [4] concerns the target Epidermal growth factor receptor (Homo sapiens, UniProt P00533). The experiment in a line: Inhibition of recombinant human N-terminal GST-tagged EGFR (669 to 1210 residues) expressed in Sf21 insect cells using kinase substrate 22 incubated for 30 mins in presence of ATP.

Epidermal growth factor receptor, sequence (P00533 whole entry, the tested form may be a part): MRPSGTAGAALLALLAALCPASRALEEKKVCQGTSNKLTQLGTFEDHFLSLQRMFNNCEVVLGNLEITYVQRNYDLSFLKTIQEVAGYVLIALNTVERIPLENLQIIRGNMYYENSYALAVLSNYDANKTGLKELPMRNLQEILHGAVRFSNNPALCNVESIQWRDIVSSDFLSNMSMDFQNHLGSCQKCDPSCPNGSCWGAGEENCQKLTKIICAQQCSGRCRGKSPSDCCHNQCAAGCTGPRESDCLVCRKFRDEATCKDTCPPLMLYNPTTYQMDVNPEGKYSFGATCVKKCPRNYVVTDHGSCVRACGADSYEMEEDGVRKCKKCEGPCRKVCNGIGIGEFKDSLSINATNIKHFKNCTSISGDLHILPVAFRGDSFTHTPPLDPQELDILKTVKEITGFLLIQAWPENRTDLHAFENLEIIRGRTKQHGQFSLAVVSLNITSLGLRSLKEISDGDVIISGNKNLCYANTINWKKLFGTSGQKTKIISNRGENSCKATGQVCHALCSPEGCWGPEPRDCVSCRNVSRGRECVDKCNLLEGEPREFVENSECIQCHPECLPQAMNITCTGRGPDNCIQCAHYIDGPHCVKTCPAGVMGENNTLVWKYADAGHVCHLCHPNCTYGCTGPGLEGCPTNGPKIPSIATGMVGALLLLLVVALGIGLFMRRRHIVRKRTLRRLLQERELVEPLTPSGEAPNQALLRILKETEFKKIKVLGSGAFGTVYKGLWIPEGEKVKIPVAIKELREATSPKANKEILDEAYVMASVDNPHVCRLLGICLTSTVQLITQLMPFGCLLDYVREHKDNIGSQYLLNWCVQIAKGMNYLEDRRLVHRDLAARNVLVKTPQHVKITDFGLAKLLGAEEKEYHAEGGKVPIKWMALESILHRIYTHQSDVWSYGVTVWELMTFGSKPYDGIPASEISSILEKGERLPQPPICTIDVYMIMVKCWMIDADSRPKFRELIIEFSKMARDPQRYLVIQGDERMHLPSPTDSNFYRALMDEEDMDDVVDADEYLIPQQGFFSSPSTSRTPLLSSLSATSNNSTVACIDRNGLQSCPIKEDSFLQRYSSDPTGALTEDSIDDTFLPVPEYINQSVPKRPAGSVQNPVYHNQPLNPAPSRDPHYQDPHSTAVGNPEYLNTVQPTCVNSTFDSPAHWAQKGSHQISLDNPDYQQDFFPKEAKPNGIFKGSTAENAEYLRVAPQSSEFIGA

As to `C=CC(=O)N1CCN(C(=O)Oc2cc3c(Nc4ccc5ccccc5c4)ncnc3cc2OC)[C@H](C)C1`, the inhibition in test [1] came out at 30.8%.
Regarding `CN(C)C/C=C/C(=O)Nc1cc2c(Nc3ccc(F)c(Cl)c3)ncnc2cc1O[C@H]1CCOC1` [AFATINIB], in test [1], the inhibition is 102%. Moreover, the IC50 in test [2] stood at 0.00169 µM. In addition, the GI50 in the test on NCI-H358 came to 0.001 µM; in the test with PC-9, 0.00037 µM; in the test with Calu-3 it was 0.00277 µM; in test [3] it was 0.00023 µM.
With `C=CC(=O)N1CCN(C(=O)Oc2cc3c(Nc4ccc(F)c(C#N)c4)ncnc3cc2OC)[C@H](C)C1`, in test [1], the inhibition amounted to 13.9%.
Turning to `C=CC(=O)N1CCN(C(=O)Oc2cc3c(Nc4cc(C(C)(C)C)no4)ncnc3cc2OC)[C@H](C)C1`, the inhibition in test [1] worked out at 14.6%.
The same measure, in the same setting: the same measure for `C=C(F)C(=O)N1CCN(C(=O)Oc2cc3c(Nc4ccc(Cl)c(Cl)c4F)ncnc3cc2OC)[C@H](C)C1`: 41.1%; for `C=CC(=O)N1CCN(C(=O)Oc2cc3c(Nc4ccc(C#N)cc4)ncnc3cc2OC)[C@H](C)C1`: 4.4%.
On the same count and under the same terms, the same measure for `C=C(C)C(=O)N1CCN(C(=O)Oc2cc3c(Nc4ccc(Cl)c(Cl)c4F)ncnc3cc2OC)[C@H](C)C1`: 43.6%; for `C=C(F)C(=O)N1C[C@@H]2C[C@H]1CN2C(=O)Oc1cc2c(Nc3ccc(Cl)c(Cl)c3F)ncnc2cc1OC`: 47.9%.
For the molecule `C=CC(=O)Oc1cc2c(Nc3ccc(Cl)c(Cl)c3F)ncnc2cc1OC`, in test [1], the inhibition was 71.5%. The half-maximal inhibitory concentration (IC50) in test [4] was found to be 0.00054 µM; in test [2], 0.0544 µM. The GI50 in the test on NCI-H358 is 0.619 µM; with PC-9, 0.0923 µM; in the test on Calu-3, 1.34 µM; in test [3] it was over 2 µM.
`C=CC(=O)N1CCN(C(=O)Oc2cc3c(Nc4cccc(Cl)c4F)ncnc3cc2OC)[C@H](C)C1`: in test [1], the inhibition was determined as 53.4%. The results for the IC50 in test [4] and in test [2] were 0.00034 µM and 0.152 µM, respectively. In addition, the 50% growth inhibitory concentration (GI50) with NCI-H358 is 0.464 µM; with PC-9, 0.00603 µM; with Calu-3 it was 0.264 µM; in test [3] it was over 2 µM.
With `C=CC(=O)N1CCN(C(=O)Oc2cc3c(Nc4cnc5ccccc5c4)ncnc3cc2OC)[C@H](C)C1`, in test [1], the inhibition came to 14.9%.
On the same count and under the same terms, the same measure for `C=CC(=O)N1CCN(C(=O)Oc2cc3c(Nc4ccc5ncccc5c4)ncnc3cc2OC)[C@H](C)C1`: 2.6%.
With `C=CC(=O)N1CCC(Oc2cc3c(Nc4ccc(Cl)c(Cl)c4F)ncnc3cc2OC)CC1` [POZIOTINIB], the inhibition in test [1] amounted to 97.1%. Further, the IC50 in test [2] came out at 0.00388 µM. In addition, the GI50 in the test on NCI-H358 was 0.00867 µM; with PC-9 it was 0.0009 µM; in the test with Calu-3 it was 0.0101 µM; in test [3] it was 0.00227 µM.
As for `C=CC(=O)N1C[C@@H]2C[C@H]1CN2C(=O)Oc1cc2c(Nc3ccc(Cl)c(Cl)c3F)ncnc2cc1OC`, the inhibition in test [1] is 95.8%. Moreover, the IC50 was 0.0003 µM in test [4] and 0.00607 µM in test [2]. Besides, the GI50 is 0.0233 µM in the test with NCI-H358, 0.00195 µM in the test on PC-9, 0.0231 µM in the test with Calu-3 and 0.0416 µM in test [3].
Take `C#CC(=O)N1CCN(C(=O)Oc2cc3c(Nc4ccc(Cl)c(Cl)c4F)ncnc3cc2OC)[C@H](C)C1`: the inhibition in test [1] came to 94%. Also, the IC50 was 0.00032 µM in test [4] and 0.0222 µM in test [2]. Also, the GI50 in the test on NCI-H358 is 0.671 µM; in the test on PC-9, 0.299 µM; in the test with Calu-3 it was 0.718 µM; in test [3] it was over 2 µM.
With `C=C(C(=O)N1CCN(C(=O)Oc2cc3c(Nc4ccc(Cl)c(Cl)c4F)ncnc3cc2OC)[C@H](C)C1)C(F)(F)F`, the inhibition in test [1] was 82.7%. Further, the concentration for half-maximal inhibition (IC50) in test [4] was 0.00038 µM; in test [2], 0.0282 µM. The 50% growth inhibitory concentration (GI50) with NCI-H358 is 1.02 µM; in the test with PC-9 it was 0.0908 µM; in the test on Calu-3, 0.553 µM; in test [3], over 2 µM.
As to `C=CC(=O)N1CCN(C(=O)Oc2cc3c(Nc4ccc(Cl)c(Cl)c4F)ncnc3cc2OC)[C@H](C)C1`, the inhibition in test [1] came to 48.9%.
Take `C=CC(=O)N1CCN(C(=O)Oc2cc3c(Nc4ccc(C#N)c(Cl)c4)ncnc3cc2OC)[C@H](C)C1`: the inhibition in test [1] was 11.9%.
Still for that read-out and setting: the same measure for `C=CC(=O)N1CCN(C(=O)Oc2cc3c(Nc4ccc5scnc5c4)ncnc3cc2OC)[C@H](C)C1`: 5.8%.
Still for that read-out and setting: the same measure for `C=CC(=O)N1CCN(C(=O)Oc2cc3c(Nc4ccc(C#N)c(F)c4)ncnc3cc2OC)[C@H](C)C1`: 2.3%; for `C=C(F)C(=O)N1CCN(C(=O)Oc2cc3c(Nc4cnc5ccccc5c4)ncnc3cc2OC)[C@H](C)C1`: 11.5%.

In general, inhibition refers to the relative decrease from the control value, in per cent. As usually defined, the IC50 is the concentration needed to halve the response being measured. A word on the GI50: it is the concentration that inhibits growth by half.
